Source: patent US5616684A, “Cyclic peptides and use thereof” (priority 1991, dated 1997)
Where two headings read alike, the source gives them in different places.

Conditions: amide bond

CC(C)C[C@@H]1NC(=O)[C@@H](CC(C)C)NC(=O)[C@H](CC(=O)O)NC(=O)[C@@H]2CCCN2C(=O)[C@@H](CC(=O)O)NC(=O)[C@@H](Cc2c[nH]c3ccccc23)NC1=O [cyclo[-D-Asp-Pro-Asp-D-Leu-Leu-D-Trp-]]
ring closure, yield of all isomers (from CC(C)C[C@H](NC(=O)[C@@H](CC(C)C)NC(=O)[C@H](CC(=O)OCc1ccccc1)NC(=O)[C@@H]1CCCN1C(=O)[C@@H](CC(=O)OCc1ccccc1)NC(=O)[C@@H](Cc1c[nH]c2ccccc12)NC(=O)OC(C)(C)C)C(=O)O, HONB/DCC (ONB active ester), TEA, DMF, 5.1 mM, 16.0 h, 4 steps): 47.4%

CC(C)C[C@@H]1NC(=O)[C@@H](CC(C)C)NC(=O)[C@@H](CC(=O)O)NC(=O)[C@H](C)NC(=O)[C@@H](CC(=O)O)NC(=O)[C@@H](Cc2c[nH]c3ccccc23)NC1=O [cyclo[-D-Asp-Ala-D-Asp-D-Leu-Leu-D-Trp-]]
ring closure, yield of all isomers (from CC(C)C[C@H](NC(=O)[C@@H](CC(C)C)NC(=O)[C@@H](CC(=O)OCc1ccccc1)NC(=O)[C@H](C)NC(=O)[C@@H](CC(=O)OCc1ccccc1)NC(=O)[C@@H](Cc1c[nH]c2ccccc12)NC(=O)OC(C)(C)C)C(=O)O, HONB/DCC (active ester), TEA, DMF, 5.0 mM, 4 steps): 15.3%

CC(C)C[C@@H]1NC(=O)[C@@H](CC(C)C)NC(=O)[C@H](CC(=O)O)NC(=O)[C@H](Cc2c[nH]c3ccccc23)NC(=O)[C@@H](CC(=O)O)NC(=O)[C@@H](Cc2c[nH]c3ccccc23)NC1=O [cyclo[-D-Asp-Trp-Asp-D-Leu-Leu-D-Trp-]]
ring closure, yield of all isomers (from CC(C)C[C@H](NC(=O)[C@@H](CC(C)C)NC(=O)[C@H](CC(=O)OCc1ccccc1)NC(=O)[C@H](Cc1c[nH]c2ccccc12)NC(=O)[C@@H](CC(=O)OCc1ccccc1)NC(=O)[C@@H](Cc1c[nH]c2ccccc12)NC(=O)OC(C)(C)C)C(=O)O, HONB/DCC (ONB active ester), TEA, DMF, 4.97 mM, 16.0 h, 4 steps): 52.9%

CC(C)C[C@@H]1NC(=O)[C@@H](CC(C)C)NC(=O)[C@H](C)NC(=O)CNC(=O)[C@@H](CC(=O)O)NC(=O)[C@@H](Cc2c[nH]c3ccccc23)NC1=O [cyclo[-D-Asp-Gly-Ala-D-Leu-Leu-D-Trp-]]
ring closure, yield of all isomers (from CC(C)C[C@H](NC(=O)[C@@H](CC(C)C)NC(=O)[C@H](C)NC(=O)CNC(=O)[C@@H](CC(=O)OCc1ccccc1)NC(=O)[C@@H](Cc1c[nH]c2ccccc12)NC(=O)OC(C)(C)C)C(=O)O, HONB/DCC (active ester), TEA, DMF, 5.9 mM, 16.0 h, 4 steps): 19.2%

CC(C)C[C@@H]1NC(=O)[C@@H](CC(C)C)NC(=O)[C@@H](CCC(=O)O)NC(=O)[C@H](C)NC(=O)[C@@H](CC(=O)O)NC(=O)[C@@H](Cc2c[nH]c3ccccc23)NC1=O [cyclo[-D-Asp-Ala-D-Glu-D-Leu-Leu-D-Trp-]]
ring closure, yield of all isomers (from CC(C)C[C@H](NC(=O)[C@@H](CC(C)C)NC(=O)[C@@H](CCC(=O)OCc1ccccc1)NC(=O)[C@H](C)NC(=O)[C@@H](CC(=O)OCc1ccccc1)NC(=O)[C@@H](Cc1c[nH]c2ccccc12)NC(=O)OC(C)(C)C)C(=O)O, HONB/DCC (active ester), TEA, DMF, 4.97 mM, 16.0 h, 4 steps): 10.8%

CC(C)C[C@@H]1NC(=O)[C@@H](c2cccs2)NC(=O)[C@H](CC(=O)O)NC(=O)[C@H](CC(=O)NCCc2c[nH]c3ccccc23)NC(=O)[C@@H](CC(=O)O)NC(=O)[C@@H](Cc2c[nH]c3ccccc23)NC1=O [cyclo[-D-Asp-Asn(CH2 CH2 -Ind)-Asp-D-Thg(2)-Leu-D-Trp-]]
ring closure, yield of all isomers (from CC(C)C[C@H](NC(=O)[C@H](NC(=O)OC(C)(C)C)c1cccs1)C(=O)N[C@H](Cc1c[nH]c2ccccc12)C(=O)N[C@H](CC(=O)OCc1ccccc1)C(=O)N[C@@H](CC(=O)NCCc1c[nH]c2ccccc12)C(=O)N[C@@H](CC(=O)OCc1ccccc1)C(=O)O, 4 steps): 9.5%

CC(C)C[C@@H]1NC(=O)[C@@H](CC(C)C)NC(=O)[C@H](CC(=O)O)NC(=O)[C@H](CC(=O)NCc2ccccc2)NC(=O)[C@@H](CC(=O)O)NC(=O)[C@@H](Cc2c[nH]c3ccccc23)NC1=O [cyclo[-D-Asp-Asn(CH2 Ph)-Asp-D-Leu-Leu-D-Trp-]]
ring closure, yield of all isomers (from CC(C)C[C@H](NC(=O)[C@@H](CC(C)C)NC(=O)[C@H](CC(=O)OCc1ccccc1)NC(=O)[C@H](CC(=O)NCc1ccccc1)NC(=O)[C@@H](CC(=O)OCc1ccccc1)NC(=O)[C@@H](Cc1c[nH]c2ccccc12)NC(=O)OC(C)(C)C)C(=O)O, HONB/DCC (ONB active ester), TEA, DMF, 3.46 mM, 16.0 h, 4 steps): 23.8%

CC(C)C[C@@H]1NC(=O)[C@@H](CC(C)C)NC(=O)[C@H](CC(=O)O)NC(=O)[C@H](CCCNC(=O)CCc2ccccc2)NC(=O)[C@@H](CC(=O)O)NC(=O)[C@@H](Cc2c[nH]c3ccccc23)NC1=O [cyclo[-D-Asp-Orn(COCH2 CH2 Ph)-Asp-D-Leu-Leu-D-Trp-]]
ring closure, yield of all isomers (from CC(C)C[C@H](NC(=O)[C@@H](CC(C)C)NC(=O)[C@H](CC(=O)OCc1ccccc1)NC(=O)[C@H](CCCNC(=O)CCc1ccccc1)NC(=O)OC(C)(C)C)C(=O)N[C@H](Cc1c[nH]c2ccccc12)C(=O)N[C@H](CC(=O)OCc1ccccc1)C(=O)O, HONB/DCC (active ester), TEA, DMF, 5.05 mM, 16.0 h, 4 steps): 40.9%

CC(C)C[C@@H]1NC(=O)[C@@H](c2cccs2)NC(=O)[C@H](CC(=O)O)NC(=O)[C@H](Cc2c[nH]c3ccccc23)NC(=O)[C@@H](CC(=O)O)NC(=O)[C@@H](Cc2c[nH]c3ccccc23)NC1=O [cyclo[-D-Asp-Trp-Asp-D-Thg(2)-Leu-D-Trp-]]
ring closure, yield of all isomers (from CC(C)C[C@H](NC(=O)[C@H](NC(=O)OC(C)(C)C)c1cccs1)C(=O)N[C@H](Cc1c[nH]c2ccccc12)C(=O)N[C@H](CC(=O)OCc1ccccc1)C(=O)N[C@@H](Cc1c[nH]c2ccccc12)C(=O)N[C@@H](CC(=O)OCc1ccccc1)C(=O)O, HONB/DCC (active ester), TEA, DMF, 5.06 mM, 4 steps): 4.6%

CC(C)C[C@@H]1NC(=O)[C@@H](CC(C)(C)C)NC(=O)[C@H](CC(=O)O)NC(=O)[C@H](Cc2c[nH]c3ccccc23)NC(=O)[C@@H](CC(=O)O)NC(=O)[C@@H](Cc2c[nH]c3ccccc23)NC1=O [cyclo[-D-Asp-Trp-Asp-D-γMeLeu-Leu-D-Trp-]]
ring closure, yield of all isomers (from CC(C)C[C@H](NC(=O)[C@@H](CC(C)(C)C)NC(=O)OC(C)(C)C)C(=O)N[C@H](Cc1c[nH]c2ccccc12)C(=O)N[C@H](CC(=O)OCc1ccccc1)C(=O)N[C@@H](Cc1c[nH]c2ccccc12)C(=O)N[C@@H](CC(=O)OCc1ccccc1)C(=O)O, HONB/DCC (active ester), then TEA, DMF, 4.97 mM, 16.0 h, 4 steps): 51.5%

CC(C)C[C@@H]1NC(=O)[C@@H](CC(C)C)NC(=O)[C@H](CCC(=O)O)NC(=O)[C@H](C)NC(=O)[C@@H](CC(=O)O)NC(=O)[C@@H](Cc2c[nH]c3ccccc23)NC1=O [cyclo[-D-Asp-Ala-Glu-D-Leu-Leu-D-Trp-]]
ring closure, yield of all isomers (from CC(C)C[C@H](NC(=O)[C@@H](CC(C)C)NC(=O)[C@H](CCC(=O)OCc1ccccc1)NC(=O)[C@H](C)NC(=O)[C@@H](CC(=O)OCc1ccccc1)NC(=O)[C@@H](Cc1c[nH]c2ccccc12)NC(=O)OC(C)(C)C)C(=O)O, HONB/DCC (active ester), TEA, DMF, 4.97 mM, 16.0 h, 4 steps): 24.1%

CC(C)C[C@@H]1NC(=O)[C@@H](CC(C)C)NC(=O)[C@H](CC(=O)O)NC(=O)[C@H](C)NC(=O)[C@@H](CC(=O)O)NC(=O)[C@@H](Cc2c[nH]c3ccccc23)NC1=O [cyclo[-D-Asp-Ala-Asp-D-Leu-Leu-D-Trp-]]
ring closure, yield of all isomers (from CC(C)C[C@H](NC(=O)[C@@H](CC(C)C)NC(=O)[C@H](CC(=O)OCc1ccccc1)NC(=O)[C@H](C)NC(=O)[C@@H](CC(=O)OCc1ccccc1)NC(=O)[C@@H](Cc1c[nH]c2ccccc12)NC(=O)OC(C)(C)C)C(=O)O, HONB/DCC (active ester), TEA, DMF, 5.0 mM, 4 steps): 18.2%

CC(C)C[C@@H]1NC(=O)[C@@H](c2cccs2)NC(=O)[C@H](CC(=O)OCc2ccccc2)NC(=O)[C@H](CC(=O)NCCc2c[nH]c3ccccc23)NC(=O)[C@@H](CC(=O)OCc2ccccc2)NC(=O)[C@@H](Cc2c[nH]c3ccccc23)NC1=O
ring closure, yield of all isomers (from CC(C)C[C@H](NC(=O)[C@H](NC(=O)[C@H](CC(=O)OCc1ccccc1)NC(=O)[C@H](CC(=O)NCCc1c[nH]c2ccccc12)NC(=O)[C@@H](CC(=O)OCc1ccccc1)NC(=O)[C@@H](Cc1c[nH]c2ccccc12)NC(=O)OC(C)(C)C)c1cccs1)C(=O)O, HONB/DCC (active ester), then diisopropylethylamine, DMF, 4.75 mM, 3 steps): 90.4%
